Reference: US20260103721A1, “GENES CONTROLLING BARRIER FORMATION IN ROOTS” (The Regents of the University of California, priority 2022, published 2026)

Assays:
Format in all cases: in vivo, Solanum lycopersicum
tomato root = test: Root growth after 24 h piperonylic acid treatment; settings: 200 μM PA, 4-day-old plants, newly grown root zone after transfer
Experimental: FIG. 7A-B (also referred to as Supplemental FIG. 2 in technical section). […] A. Schematic representation of the experimental design to test the PA. 4-day-old plants after germination were transferred to MS media+1% sucrose with and without 200 μM of PA. After 24 hours, root growth was measured for the part of the root that grew after transferring. Orange horizontal bar=newly grown root after transferring. B. Root growth after 24H in control and PA treatment for the newly root zone after transferring (statistical significance test determined by ANOVA p-value 0.05).
(§1) Seeds of M82 were grown in 1% MS+1% sucrose. Four days after germination, plants were transferred to new MS square plates with/without 200 μM of piperonylic acid (Sigma P49805-5G) and 200 μM piperonylic acid plus 10 mM monolignols (Sigma Aldrich 223735-100MG,404586-100MG) for 24 hours in the dark, with DMSO as the solvent. Three cm segments from the root tip including the root meristem were exposed to 15 μg/mL PI (P4170; Sigma) in the dark at 30° C. for 1 h. The roots were washed in water and one cm segments from the root tip were embedded in 3% agarose and made sections of 150-200 μM using a vibratome (Leica VT1000 S). Confocal Laser Scanning microscopy was performed on a Zeiss LSM700 confocal with the 20× objective, at 405 nm excitation and 600-650 nm detection.

[1] = tested on: root lignin biosynthesis within the endodermis and exodermis; test: Root lignin deposition (basic fuchsin staining) after PA treatment; settings: 200 μM PA, 24 hours
Experimental: For root sections stained with basic fuchsin (Fisher scientific Cat no 632-99-5) and calcofluor white (PhytoTechnology laboratories Cat no 4404-43-7), 1 cm segments from the root tip were embedded in 3% agarose and were sectioned at 150-200 μM using a vibratome (Leica VT1000 S). The sections were stained in Clearsee buffer (Ursache et al. 2018) with basic fuchsin for 30 minutes then washed two times. In some cases, the sections were stained with calcofluor after basic fuchsin for 30 minutes and washed two times. Confocal Laser Scanning microscopy was performed on a Zeiss LSM700 confocal with the 20× objective, basic fuchsin: 550-561 nm excitation and 570-650 nm detection. Root samples were mounted in ClearSee (Ursache et al., 2018) and scanned and imaged on a Zeiss Observer Z1 with the 20× or 40× objective, basic fuchsin: 550-561 nm excitation and 570-650 nm detection and calcofluor white: 405 nm excitation and 425-475 nm detection.
Seeds of M82 were grown in 1% MS+1% sucrose. Four days after germination, plants were transferred to new MS square plates with/without 200 μM of piperonylic acid (Sigma P49805-5G) and 200 μM piperonylic acid plus 10 mM monolignols (Sigma Aldrich 223735-100MG,404586-100MG) for 24 hours in the dark, with DMSO as the solvent. […]

[2] = tested on: exodermal lignin cap (apoplastic barrier) of tomato root; test: Apoplastic tracer assay with propidium iodide (PI); settings: 200 μM PA 24 hours, then PI 30 minutes
Experimental: as §1, with “Three cm segments from the root tip including the root meristem were exposed to 15 μg/mL PI (P4170; Sigma) in the dark at 30° C. for 1 h.” left out

O=C(O)c1ccc2c(c1)OCO2 [PA, Piperonylic acid]
root growth (tomato root): does not interfere with root growth
root growth (tomato root; listed as Piperonylic acid): does not affect root growth
root lignin biosynthesis within the endodermis and exodermis [1]: does disrupt root lignin biosynthesis
PI penetration into cortex cells [2]: Pt was observed after exposure within cortex cells
PI signal in the exodermal lignin cap (PI blockage) ([2]; control versus PA-treated): more intense in control relative to PA-treated plants
